{
  "source": "ChEMBL document CHEMBL5131397",
  "about": "“Discovery and Optimization of Pyrazole Amides as Inhibitors of ELOVL1” (J Med Chem, 2021)",
  "key": {"[1]": {"assay": "Toxicity in Cynomolgus monkey assessed as dry and red scaly areas on abdomen at 5 to 50 mg/kg/day, po administered for 14 days by macroscopic observation analysis", "assay_type": "organism-based, Macaca fascicularis", "conditions": "in vivo, 336 h, dose 5-50 mg/kg/day, time 14 day"}, "[2]": {"assay": "AUC (infinity) in Sprague-Dawley rat at 3 mg/kg, po upto 24 hrs by LC/MS/MS analysis", "assay_type": "ADME, organism-based", "set-up": "dose 3 mg/kg, time < 24 hrs, route po", "conditions": "in vivo"}, "[3]": {"assay": "Toxicity in Sprague-Dawley rat assessed as ocular stromal fibrosis at 5 mg/kg/day, po administered for 8 weeks by microscopic observation analysis", "assay_type": "organism-based", "conditions": "in vivo, 1344 h"}, "[4]": {"assay": "Toxicity in Sprague-Dawley rat assessed as ocular epithelial atrophy at 5 mg/kg/day, po administered for 8 weeks by microscopic observation analysis", "assay_type": "organism-based", "conditions": "in vivo, 1344 h"}, "[5]": {"biological_target": "T1, Very long chain fatty acid elongase 7 (Homo sapiens) (UniProt A1L3X0)", "T1 sequence (whole entry)": "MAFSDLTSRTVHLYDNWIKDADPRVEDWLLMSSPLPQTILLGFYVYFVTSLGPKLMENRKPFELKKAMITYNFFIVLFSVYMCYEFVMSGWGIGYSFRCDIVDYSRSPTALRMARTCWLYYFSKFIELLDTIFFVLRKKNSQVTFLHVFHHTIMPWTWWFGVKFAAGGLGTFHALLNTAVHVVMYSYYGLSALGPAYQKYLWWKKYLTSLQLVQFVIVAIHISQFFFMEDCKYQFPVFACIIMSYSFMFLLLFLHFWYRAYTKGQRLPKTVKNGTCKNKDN", "assay": "Inhibition of ELOVL-7 in human HEK2936E cells assessed as increase in C20:0 lipo phosphatidyl choline synthesis at 100 nM in presence of 13C-labeled acetate measured after 48 hrs", "assay_type": "cell-based"}, "[6]": {"assay": "Toxicity in Cynomolgus monkey assessed as skin inflammatory infiltrates at 5 to 50 mg/kg/day, po administered for 14 days by microscopic observation analysis", "assay_type": "organism-based, Macaca fascicularis", "conditions": "in vivo, 336 h, dose 5-50 mg/kg/day, time 14 day"}, "[7]": {"assay": "Toxicity in Sprague-Dawley rat assessed as corneal opacities at 5 mg/kg/day, po administered for 8 weeks by macroscopic observation analysis", "assay_type": "organism-based", "conditions": "in vivo, 1344 h"}, "[8]": {"assay": "Toxicity in Cynomolgus monkey assessed as adverse skin lesions at 20 to 50 mg/kg/day, po administered for 14 days", "assay_type": "organism-based, Macaca fascicularis", "conditions": "in vivo, 336 h, dose 20-50 mg/kg/day, time 14 day"}, "[9]": {"assay": "Toxicity in Cynomolgus monkey assessed as acanthosis at 5 to 50 mg/kg/day, po administered for 14 days by microscopic observation analysis", "assay_type": "organism-based, Macaca fascicularis", "conditions": "in vivo, 336 h, dose 5-50 mg/kg/day, time 14 day"}, "[10]": {"assay": "Toxicity in Sprague-Dawley rat assessed as corneal keratitis at 5 mg/kg/day, po administered for 8 weeks by macroscopic observation analysis", "assay_type": "organism-based", "conditions": "in vivo, 1344 h"}, "[11]": {"biological_target": "T2, Very long chain fatty acid elongase 1 (Homo sapiens, UniProt Q9BW60)", "T2 sequence (Q9BW60 whole entry)": "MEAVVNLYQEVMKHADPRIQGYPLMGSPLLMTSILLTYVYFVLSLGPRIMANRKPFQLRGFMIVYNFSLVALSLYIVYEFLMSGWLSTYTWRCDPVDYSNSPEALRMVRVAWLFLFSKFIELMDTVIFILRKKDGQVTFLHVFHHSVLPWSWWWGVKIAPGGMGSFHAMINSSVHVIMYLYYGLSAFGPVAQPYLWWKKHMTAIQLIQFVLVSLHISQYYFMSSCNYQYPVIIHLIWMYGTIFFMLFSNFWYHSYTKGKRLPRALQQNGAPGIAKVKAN", "assay": "Inhibition of ELOVL1 (unknown origin) using C22-acyl-CoA as substrate by radiometric enzyme assay"}, "[12]": {"assay": "Reduction in C26:0/C16:0 LPC level in ABCD1 knock out mouse CNS at 16 mg/kg, po qd measured after 6 months of dosing by LC-MS/SMS analysis", "assay_type": "functional", "set-up": "scale not given: the % may be the effect or the level left", "conditions": "4380 h"}, "[13]": {"assay": "Half life in mouse at 1 mg/kg, iv upto 48 hrs by LC/MS/MS analysis", "assay_type": "ADME, organism-based", "conditions": "in vivo"}, "[14]": {"assay": "Cmax in Sprague-Dawley rat at 3 mg/kg, po upto 24 hrs by LC/MS/MS analysis", "assay_type": "ADME, organism-based", "set-up": "dose 3 mg/kg, time < 24 hrs, route po", "conditions": "in vivo"}, "[15]": {"assay": "Tmax in Beagle dog at 3 mg/kg, po upto 24 hrs by LC/MS/MS analysis", "assay_type": "ADME, organism-based, Canis lupus familiaris", "conditions": "in vivo"}, "[16]": {"assay": "Apparent permeability across apical to basolateral side in wild-type dog MDCK cells by LC-MS analysis", "assay_type": "ADME, cell-based, Canis lupus familiaris"}, "[17]": {"assay": "Cmax in Cynomolgus monkey at 3 mg/kg, po upto 24 hrs by LC/MS/MS analysis", "assay_type": "ADME, organism-based, Macaca fascicularis", "set-up": "time < 24 hrs, dose 3 mg/kg, route po", "conditions": "in vivo"}, "[18]": {"biological_target": "T3, Very long chain fatty acid elongase 4 (Homo sapiens, UniProt Q9GZR5)", "T3 sequence (Q9GZR5 whole entry)": "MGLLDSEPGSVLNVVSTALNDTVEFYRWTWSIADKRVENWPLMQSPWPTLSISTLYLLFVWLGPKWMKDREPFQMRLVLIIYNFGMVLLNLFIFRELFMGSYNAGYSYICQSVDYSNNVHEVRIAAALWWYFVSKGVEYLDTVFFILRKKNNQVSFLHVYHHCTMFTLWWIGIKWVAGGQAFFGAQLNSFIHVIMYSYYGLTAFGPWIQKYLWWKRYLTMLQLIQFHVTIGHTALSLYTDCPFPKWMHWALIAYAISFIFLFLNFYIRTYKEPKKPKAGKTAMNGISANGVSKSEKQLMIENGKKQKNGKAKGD", "assay": "Inhibition of ELOVL4 (unknown origin) in presence of C26-acyl-CoA by radiometric enzyme assay"}, "[19]": {"biological_target": "T2, Very long chain fatty acid elongase 1", "assay": "Inhibition of ELOVL1 in human HEK2936E cells assessed as reduction of C26:0 LPC synthesis incubated for 48 hrs by cellular assay", "assay_type": "cell-based"}, "Mus musculus": {"tested_on": "Mus musculus", "assay": "Reduction in C24:0/C16:0 LPC level in ABCD1 knock out mouse CNS at 1 to 10 mg/kg, po qd measured after 3 months of dosing by LC-MS/MS analysis", "assay_type": "functional, organism-based", "conditions": "dose 1-10 mg/kg"}, "[20]": {"assay": "Reduction in C26:0/C16:0 LPC level in wild-type Sprague-Dawley rat at 100 mg/kg, po qd treated for 7 days by LC-MS/MS analysis", "assay_type": "functional", "set-up": "scale not given: the % may be the effect or the level left", "conditions": "time 7 day"}, "[21]": {"assay": "Toxicity in Cynomolgus monkey assessed as dry and red scaly areas on thorax at 5 to 50 mg/kg/day, po administered for 14 days by macroscopic observation analysis", "assay_type": "organism-based, Macaca fascicularis", "conditions": "in vivo, 336 h, dose 5-50 mg/kg/day, time 14 day"}, "[22]": {"assay": "Volume of distribution at steady state in Sprague-Dawley rat at 1 mg/kg, iv upto 48 hrs by LC/MS/MS analysis", "assay_type": "ADME, organism-based", "conditions": "in vivo, read-out: Vdss"}, "[23]": {"assay": "Oral bioavailability in Sprague-Dawley rat at 3 mg/kg upto 24 hrs by LC/MS/MS analysis", "assay_type": "ADME, organism-based", "conditions": "in vivo"}, "[24]": {"assay": "Toxicity in telemetry-implanted Cynomolgus monkey assessed as higher baseline beta EEG activity at 5 to 20 mg/kg/day,NG administered for 7 days", "assay_type": "organism-based, Macaca fascicularis", "conditions": "in vivo, po, 168 h, dose 5-20 mg/kg/day, time 7 day"}, "[25]": {"assay": "Reduction in C26:0/C16:0 LPC level in ABCD1 knock out mouse CNS at 20 mg/kg, po qd measured after 8 months of dosing by LC-MS/MS analysis", "assay_type": "functional", "set-up": "scale not given: the % may be the effect or the level left", "conditions": "5840 h"}, "[26]": {"biological_target": "Rho-associated protein kinase 2 (Homo sapiens) (UniProt O75116)", "sequence (O75116 whole entry, looked up)": "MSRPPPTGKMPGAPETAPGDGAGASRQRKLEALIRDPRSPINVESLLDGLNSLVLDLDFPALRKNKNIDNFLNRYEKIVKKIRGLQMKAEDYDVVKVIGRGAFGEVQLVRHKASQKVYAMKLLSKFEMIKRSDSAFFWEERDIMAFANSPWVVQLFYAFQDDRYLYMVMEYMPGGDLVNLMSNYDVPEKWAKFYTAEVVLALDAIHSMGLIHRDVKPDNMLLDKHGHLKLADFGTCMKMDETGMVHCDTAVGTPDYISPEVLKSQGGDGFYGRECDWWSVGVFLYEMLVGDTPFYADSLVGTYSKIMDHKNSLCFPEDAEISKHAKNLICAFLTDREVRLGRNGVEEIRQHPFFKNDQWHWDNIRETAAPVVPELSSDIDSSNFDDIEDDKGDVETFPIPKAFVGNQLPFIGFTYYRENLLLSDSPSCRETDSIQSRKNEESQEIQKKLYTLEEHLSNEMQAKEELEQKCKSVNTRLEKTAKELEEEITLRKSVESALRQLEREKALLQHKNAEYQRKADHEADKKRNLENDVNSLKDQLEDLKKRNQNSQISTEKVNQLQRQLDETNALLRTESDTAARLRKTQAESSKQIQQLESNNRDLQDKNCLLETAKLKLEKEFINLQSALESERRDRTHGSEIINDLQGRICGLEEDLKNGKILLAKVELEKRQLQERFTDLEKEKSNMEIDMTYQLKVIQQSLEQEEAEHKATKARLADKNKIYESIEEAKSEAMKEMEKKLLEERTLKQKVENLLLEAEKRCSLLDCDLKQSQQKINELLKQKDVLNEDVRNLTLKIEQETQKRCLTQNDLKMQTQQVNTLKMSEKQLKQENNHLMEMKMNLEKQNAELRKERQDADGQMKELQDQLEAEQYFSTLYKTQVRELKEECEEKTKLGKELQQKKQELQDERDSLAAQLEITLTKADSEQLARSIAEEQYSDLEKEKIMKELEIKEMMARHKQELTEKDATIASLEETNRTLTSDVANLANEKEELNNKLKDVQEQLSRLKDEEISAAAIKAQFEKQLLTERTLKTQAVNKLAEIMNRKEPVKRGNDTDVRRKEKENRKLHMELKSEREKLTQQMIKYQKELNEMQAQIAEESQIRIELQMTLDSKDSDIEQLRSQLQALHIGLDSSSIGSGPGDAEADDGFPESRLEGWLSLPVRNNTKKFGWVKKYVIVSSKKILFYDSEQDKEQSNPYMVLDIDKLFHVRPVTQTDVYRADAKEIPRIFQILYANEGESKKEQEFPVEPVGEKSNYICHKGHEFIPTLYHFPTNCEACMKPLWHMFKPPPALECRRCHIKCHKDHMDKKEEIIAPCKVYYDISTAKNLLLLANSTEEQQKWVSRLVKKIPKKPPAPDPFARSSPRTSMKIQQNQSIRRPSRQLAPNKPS", "assay": "Inhibition of ROCK 2 (unknown origin) at 10 uM"}, "[27]": {"assay": "Toxicity in Sprague-Dawley rat assessed as decrease in body weight at 5 to 50 mg/kg/day, po administered for 8 weeks", "assay_type": "organism-based", "conditions": "in vivo, 1344 h, dose 5-50 mg/kg/day"}},
  "note": "pIC50: −log10 of the molar value. Active and inactive are the calls of the source. No cut-off for these calls is given here.",
  "data": [
    {"smiles": "O=C(Nc1ccn(-c2ccnc(F)c2)n1)C1(c2ccccc2F)CC1", "values": [
      {"measurement": "Activity", "setting": "[1]", "result": "Toxic"},
      {"measurement": "AUC", "setting": "[2]", "result": 442, "unit": "ng·h/mL"},
      {"measurement": "Activity", "setting": "[3]", "result": "Toxic"},
      {"measurement": "Activity", "setting": "[4]", "result": "Toxic"},
      {"measurement": "inhibition", "setting": "[5]", "result": "Active"},
      {"measurement": "Activity", "setting": "[6]", "result": "Toxic"},
      {"measurement": "Activity", "setting": "[7]", "result": "Toxic"},
      {"measurement": "Activity", "setting": "[8]", "result": "Toxic"},
      {"measurement": "Activity", "setting": "[9]", "result": "Toxic"},
      {"measurement": "Activity", "setting": "[10]", "result": "Toxic"},
      {"measurement": "pIC50", "setting": "[11]", "result": 6.05},
      {"measurement": "Activity", "setting": "[12]", "result": 55, "unit": "%"},
      {"measurement": "half-life", "setting": "[13]", "result": 2.9, "unit": "h"},
      {"measurement": "Cmax", "setting": "[14]", "result": 174, "unit": "ng/mL"},
      {"measurement": "Tmax", "setting": "[15]", "result": 0.5, "unit": "h"},
      {"measurement": "Papp A→B", "setting": "[16]", "result": 10.1, "unit": "×10⁻⁶ cm/s"},
      {"measurement": "Cmax", "setting": "[17]", "result": 404, "unit": "ng/mL"},
      {"measurement": "pIC50", "setting": "[18]", "result": "< 3.70"},
      {"measurement": "pIC50", "setting": "[19]", "result": 7.89},
      {"measurement": "Activity", "setting": "Mus musculus", "result": "Active"},
      {"measurement": "Activity", "setting": "[20]", "result": 77, "unit": "%"},
      {"measurement": "Activity", "setting": "[21]", "result": "Toxic"},
      {"measurement": "Vd", "setting": "[22]", "result": 4, "unit": "L/kg"},
      {"measurement": "F", "setting": "[23]", "result": 66, "unit": "%"},
      {"measurement": "Activity", "setting": "[24]", "result": "Toxic"},
      {"measurement": "Activity", "setting": "[25]", "result": 65, "unit": "%"},
      {"measurement": "inhibition", "setting": "[26]", "result": "> 50", "unit": "%"},
      {"measurement": "Activity", "setting": "[27]", "result": "Toxic"}
    ]}
  ]
}
